In the supplement of paper PMC10883282:

What was measured:
Assay in all cases: relative viability vs DMSO control (72 h) (fraction); higher = more viable cells
A204 = system: A204
Outline: (§1)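 Sarcoma cell lines were seeded in 384-well plates at densities chosen for 80–90% confluence, then 24 h later given 2.5 µl of serially diluted compound drawn from source plates spanning 10 mM to 0.0002 mM. They were held 72 h at 37 °C, 5% CO2, with 0.1% DMSO vehicle and a 5 µM positive control included. Relative viability was read with ATPLite as percent growth and averaged over up to triplicate wells. Rescaling placed full at 1 and none at 0.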

G401 = system: G401
Outline: as §1

HT1080 = system: HT1080
Outline: as §1

KHOS-240S = system: KHOS-240S
Outline: as §1

KHOS-NP = system: KHOS-NP
Outline: as §1

RD-ES = system: RD-ES
Outline: as §1

SK-ES-1 = system: SK-ES-1
Outline: as §1

SW1353 = system: SW1353
Outline: as §1

SW684 = system: SW684
Outline: as §1

SW872 = system: SW872
Outline: as §1

SW982 = system: SW982
Outline: as §1

SYO-1 = system: SYO-1
Outline: as §1

Cc1ccc(NC(=O)c2ccc(CN3CCN(C)CC3)cc2)cc1Nc1nccc(-c2cccnc2)n1 [Imatinib]
Conditions	relative viability
A204, 0.00017 µM	1.01
A204, 0.00051 µM	1.01
A204, 0.00152 µM	0.993
A204, 0.00457 µM	0.99
A204, 0.01372 µM	0.95
A204, 0.04115 µM	0.87
A204, 0.1235 µM	0.738
A204, 0.3704 µM	0.491
A204, 1.111 µM	0.389
A204, 3.333 µM	0.312
A204, 10 µM	0.196
G401, 0.00017 µM	0.963
G401, 0.00051 µM	0.988
G401, 0.00152 µM	0.958
G401, 0.00457 µM	0.938
G401, 0.01372 µM	0.956
G401, 0.04115 µM	0.945
G401, 0.1235 µM	0.951
G401, 0.3704 µM	0.946
G401, 1.111 µM	0.925
G401, 3.333 µM	0.823
G401, 10 µM	0.518
HT1080, 0.00017 µM	1.06
HT1080, 0.00051 µM	1
HT1080, 0.00152 µM	0.989
HT1080, 0.00457 µM	1.02
HT1080, 0.01372 µM	1.03
HT1080, 0.04115 µM	0.987
HT1080, 0.1235 µM	1.01
HT1080, 0.3704 µM	0.968
HT1080, 1.111 µM	0.973
HT1080, 3.333 µM	0.942
HT1080, 10 µM	0.643
KHOS-240S, 0.00017 µM	0.98
KHOS-240S, 0.00051 µM	0.977
KHOS-240S, 0.00152 µM	0.9747
KHOS-240S, 0.00457 µM	0.98
KHOS-240S, 0.01372 µM	0.97
KHOS-240S, 0.04115 µM	0.971
KHOS-240S, 0.1235 µM	0.953
KHOS-240S, 0.3704 µM	0.929
KHOS-240S, 1.111 µM	0.895
KHOS-240S, 3.333 µM	0.794
KHOS-240S, 10 µM	0.542
KHOS-NP, 0.00017 µM	1.01
KHOS-NP, 0.00051 µM	1.001
KHOS-NP, 0.00152 µM	1.01
KHOS-NP, 0.00457 µM	1
KHOS-NP, 0.01372 µM	1.02
KHOS-NP, 0.04115 µM	0.997
KHOS-NP, 0.1235 µM	1.03
KHOS-NP, 0.3704 µM	1.01
KHOS-NP, 1.111 µM	1.01
KHOS-NP, 3.333 µM	0.8795
KHOS-NP, 10 µM	0.609
RD-ES, 0.00017 µM	0.954
RD-ES, 0.00051 µM	0.957
RD-ES, 0.00152 µM	0.969
RD-ES, 0.00457 µM	0.952
RD-ES, 0.01372 µM	0.957
RD-ES, 0.04115 µM	0.961
RD-ES, 0.1235 µM	0.967
RD-ES, 0.3704 µM	0.962
RD-ES, 1.111 µM	0.951
RD-ES, 3.333 µM	0.923
RD-ES, 10 µM	0.61
SK-ES-1, 0.00017 µM	0.937
SK-ES-1, 0.00051 µM	0.98
SK-ES-1, 0.00152 µM	0.9529
SK-ES-1, 0.00457 µM	0.9471
SK-ES-1, 0.01372 µM	0.983
SK-ES-1, 0.04115 µM	0.9614
SK-ES-1, 0.1235 µM	0.977
SK-ES-1, 0.3704 µM	0.97
SK-ES-1, 1.111 µM	0.957
SK-ES-1, 3.333 µM	0.841
SK-ES-1, 10 µM	0.62
SW684, 0.00017 µM	0.968
SW684, 0.00051 µM	0.9679
SW684, 0.00152 µM	0.985
SW684, 0.00457 µM	1.02
SW684, 0.01372 µM	0.948
SW684, 0.04115 µM	0.9868
SW684, 0.1235 µM	1.01
SW684, 0.3704 µM	1.02
SW684, 1.111 µM	1.03
SW684, 3.333 µM	0.973
SW684, 10 µM	0.59
SW872, 0.00017 µM	0.973
SW872, 0.00051 µM	0.963
SW872, 0.00152 µM	0.954
SW872, 0.00457 µM	0.971
SW872, 0.01372 µM	0.992
SW872, 0.04115 µM	0.968
SW872, 0.1235 µM	0.969
SW872, 0.3704 µM	0.976
SW872, 1.111 µM	0.982
SW872, 3.333 µM	0.916
SW872, 10 µM	0.627
SW982, 0.00017 µM	0.985
SW982, 0.00051 µM	0.972
SW982, 0.00152 µM	0.973
SW982, 0.00457 µM	0.975
SW982, 0.01372 µM	0.97
SW982, 0.04115 µM	0.98
SW982, 0.1235 µM	0.963
SW982, 0.3704 µM	0.979
SW982, 1.111 µM	0.983
SW982, 3.333 µM	0.96
SW982, 10 µM	0.531
SW1353, 0.00017 µM	1.01
SW1353, 0.00051 µM	0.988
SW1353, 0.00152 µM	0.986
SW1353, 0.00457 µM	1.04
SW1353, 0.01372 µM	1.01
SW1353, 0.04115 µM	1.02
SW1353, 0.1235 µM	0.991
SW1353, 0.3704 µM	1
SW1353, 1.111 µM	1.06
SW1353, 3.333 µM	1.1
SW1353, 10 µM	0.762
SYO-1, 0.00017 µM	0.98
SYO-1, 0.00051 µM	0.974
SYO-1, 0.00152 µM	0.965
SYO-1, 0.00457 µM	0.964
SYO-1, 0.01372 µM	0.948
SYO-1, 0.04115 µM	0.907
SYO-1, 0.1235 µM	0.804
SYO-1, 0.3704 µM	0.744
SYO-1, 1.111 µM	0.704
SYO-1, 3.333 µM	0.63
SYO-1, 10 µM	0.155
